The results in this text go back to patent US8101760B2, “Glucocorticoid receptor modulator and methods of use” (Eli Lilly and Company, priority 2007, dated 2012).

Test [1] concerns the target T1, human glucocorticoid receptor (GR) (Homo sapiens, UniProt P04150).
T1 construct: expressed in transfected cells; host or cells: HEK293, transient transfection (Fugene), CMV promoter plasmid
T1 sequence (P04150 1-777): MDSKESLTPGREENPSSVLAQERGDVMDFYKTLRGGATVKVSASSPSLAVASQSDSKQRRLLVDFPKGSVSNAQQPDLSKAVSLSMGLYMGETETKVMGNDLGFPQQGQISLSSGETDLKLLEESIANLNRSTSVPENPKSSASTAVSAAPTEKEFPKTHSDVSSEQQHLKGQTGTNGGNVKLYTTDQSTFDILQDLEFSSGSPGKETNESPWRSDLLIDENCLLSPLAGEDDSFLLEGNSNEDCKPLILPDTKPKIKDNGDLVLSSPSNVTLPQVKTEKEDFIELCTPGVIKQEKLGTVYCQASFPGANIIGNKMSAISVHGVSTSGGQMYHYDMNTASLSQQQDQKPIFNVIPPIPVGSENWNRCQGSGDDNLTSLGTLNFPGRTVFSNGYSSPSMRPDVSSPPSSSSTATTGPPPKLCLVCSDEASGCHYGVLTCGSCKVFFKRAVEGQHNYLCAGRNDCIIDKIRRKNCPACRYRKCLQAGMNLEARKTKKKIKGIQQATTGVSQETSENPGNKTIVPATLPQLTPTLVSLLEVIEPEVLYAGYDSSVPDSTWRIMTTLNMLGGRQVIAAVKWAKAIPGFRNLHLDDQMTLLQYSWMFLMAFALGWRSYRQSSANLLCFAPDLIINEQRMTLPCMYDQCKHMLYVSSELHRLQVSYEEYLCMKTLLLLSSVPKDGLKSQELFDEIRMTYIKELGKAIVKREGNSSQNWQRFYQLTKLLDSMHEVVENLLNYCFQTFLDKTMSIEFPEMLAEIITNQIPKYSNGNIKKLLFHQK
As to the kind of experiment: Nuclear hormone receptor functional modulation assay (GRE-luciferase, HEK293), GR. The test is classed as cell-based. An excerpt:
The solvents, reagents, and ligands employed in the functional assay are readily available from commercial sources, or can be prepared by one of ordinary skill in the art.
Human embryonic kidney HEK293 cells are transfected with steroid hormone receptor and reporter gene plasmids using Fugene™ (Roche Diganostics) transfection reagent. Briefly, the reporter plasmid containing two copies of probasin ARE (androgen response element 5′GGTTCTTGGAGTACT3′ (SEQ ID NO:1)) and TK(thymidine kinase) promoter upstream of the luciferase reporter cDNA, is transfected into HEK293 cells with a plasmid constitutively expressing human androgen receptor (AR) using viral CMV(cytomegalovirus) promoter. The reporter plasmid containing two copies of GRE (glucocorticoid response element 5′TGTACAGGATGTTCT′3 (SEQ ID NO:2)) and TK promoter upstream of the luciferase reporter cDNA is transfected with a plasmid constitutively expressing either human glucocorticoid receptor (GR), human mineralocorticoid receptor (MR), or human progesterone receptor (PR) using viral CMV promoter. Cells are transfected in T150 cm flasks in DMEM media with 5% charcoal-stripped Fetal Bovine Serum (FBS). […] In the antagonist mode for the assays, low concentrations of agonist for each respective receptor are added to the media (0.25 nM dexamethasone for GR, 0.3 nM of methyltrienolone for AR, 0.05 nM of promegestone for PR and 0.05 nM aldosterone for MR), and the ability of test compound to antagonize the agonist response is determined. After 24 hours of incubation with test compounds, cells are lysed and luciferase activity is determined using standard techniques.
Data are fitted to a four parameter-fit logistic curve fit to determine EC50 values. […] IC50 values may be determined similarly using antagonist mode assay data. Percent inhibitions may also be determined relative to the response in the presence of agonist alone, as described above.

Test [2] deals with T2, human GR (glucocorticoid receptor) (Homo sapiens, UniProt P04150).
T2 construct: expressed in transfected cells; host or cells: HEK293 (lysate, '293-GR lysate')
T2 sequence (P04150 1-777): T1 sequence (P04150 1-777)
As to the kind of experiment: Nuclear hormone receptor binding assay, GR. The following applies: HEK293 cell lysate expressing human GR, [3H]-dexamethasone; mean of 5 determinations. On the procedure:
Cell lysates from human embryonic kidney HEK293 cells overexpressing human GR (glucocorticoid receptor), AR (androgen receptor), MR (mineralocorticoid receptor), or PR (progesterone receptor) are used for receptor-ligand competition binding assays to determine Ki values.
Briefly, steroid receptor competition binding assays are run in a buffer containing 20 mM Hepes buffer (pH=7.6), 0.2 mM EDTA, 75 mM NaCl, 1.5 mM MgCl2, 20% glycerol, 20 mM sodium molybdate, 0.2 mM DTT (dithiothreitol), 20 μg/mL aprotinin and 20 μg/mL leupeptin. Typically, steroid receptor binding assays include radio-labeled ligands, such as 0.3 nM [^3H]-dexamethasone for GR binding, 0.36 nM [^3H]-methyltrienolone for AR binding, 0.25 nM [^3H]-aldosterone for MR binding, and 0.29 nM [^3H]-methyltrienolone for PR binding, and either 20 μg 293-GR lysate, 22 μg 293-AR lysate, 20 μg 293-MR lysate or 40 μg 293-PR lysate per well. Assays are typically run in 96-well format. Competing test compounds are added at various concentrations ranging from about 0.01 nM to 10 μM. Non-specific binding is determined in the presence of 500 nM dexamethasone for GR binding, 500 nM aldosterone for MR binding, or 500 nM methyltrienolone for AR and PR binding. […] After an incubation of 2 hours, plates are read in a Wallac Microbeta counter. […]

Structures are written as SMILES. Some results are limits rather than exact numbers.

As for `CC/C(=C1\c2ccc(Cl)cc2OCc2ncccc21)c1cccc(NS(C)(=O)=O)c1` [Compound (I), (E)-N-{3-[1-(8-Chloro-11H-10-oxa-1-aza-dibenzo[a,d]cyclohepten-5-ylidene)-propyl]-phenyl}-methanesulfonamide], the Emax in test [1] (HEK293, partial agonist activity, read-out: maximal efficacy in inducing GR/GRE-mediated gene transcription (transactivation)) is less than 50%. This compound had an EC50 in test [1] (agonist mode, activating transcription, mean of 3) of 1.9 nM. The “GR % Eff.” value in test [1] (percent efficacy at 10 μM relative to 100 nM dexamethasone, mean of 3) came to 45.7%. The compound further displayed a Ki in test [2] of 0.35 nM.

One may read the EC50 as the concentration giving half of the maximal effect. Usually Ki stands for a dissociation constant, usually derived from enzyme kinetics or from competition with a known ligand. Low values mean a stronger hold on the target, high ones a looser hold on the target.
